Source: the kinase profiling compilation of Christmann-Franck et al. (2016)

Columns and labels:
DDR1 (human) = DDR1 (human) (UniProt Q08345)
IRAK3 (human) = IRAK3 (human) (UniProt Q9Y616)
LRRK2 (human) = LRRK2 (human) (UniProt Q5S007)
MAP2K1 (human) = MAP2K1 (human) (UniProt Q02750)
MAP3K11 (human) = MAP3K11 (human) (UniProt Q16584)
MAP4K1 (human) = MAP4K1 (human) (UniProt Q92918)
MAP4K2 (human) = MAP4K2 (human) (UniProt Q12851)
MAPK9 (human) = MAPK9 (human) (UniProt P45984)
SYK (human) = SYK (human) (UniProt P43405)

MAPK9 (human), sequence (P45984 whole entry, looked up): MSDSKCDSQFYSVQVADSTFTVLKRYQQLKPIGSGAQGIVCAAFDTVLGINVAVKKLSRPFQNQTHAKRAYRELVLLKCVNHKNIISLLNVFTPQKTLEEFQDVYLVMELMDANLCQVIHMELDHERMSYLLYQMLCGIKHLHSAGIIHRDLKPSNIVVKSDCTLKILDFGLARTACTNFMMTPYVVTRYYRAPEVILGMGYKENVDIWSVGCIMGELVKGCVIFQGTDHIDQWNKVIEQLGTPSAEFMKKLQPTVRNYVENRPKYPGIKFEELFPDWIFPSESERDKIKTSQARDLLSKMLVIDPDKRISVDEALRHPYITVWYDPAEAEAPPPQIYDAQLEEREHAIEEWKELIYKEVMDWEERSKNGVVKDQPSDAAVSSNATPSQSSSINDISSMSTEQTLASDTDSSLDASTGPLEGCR
MAP4K1 (human), sequence (Q92918 whole entry, looked up): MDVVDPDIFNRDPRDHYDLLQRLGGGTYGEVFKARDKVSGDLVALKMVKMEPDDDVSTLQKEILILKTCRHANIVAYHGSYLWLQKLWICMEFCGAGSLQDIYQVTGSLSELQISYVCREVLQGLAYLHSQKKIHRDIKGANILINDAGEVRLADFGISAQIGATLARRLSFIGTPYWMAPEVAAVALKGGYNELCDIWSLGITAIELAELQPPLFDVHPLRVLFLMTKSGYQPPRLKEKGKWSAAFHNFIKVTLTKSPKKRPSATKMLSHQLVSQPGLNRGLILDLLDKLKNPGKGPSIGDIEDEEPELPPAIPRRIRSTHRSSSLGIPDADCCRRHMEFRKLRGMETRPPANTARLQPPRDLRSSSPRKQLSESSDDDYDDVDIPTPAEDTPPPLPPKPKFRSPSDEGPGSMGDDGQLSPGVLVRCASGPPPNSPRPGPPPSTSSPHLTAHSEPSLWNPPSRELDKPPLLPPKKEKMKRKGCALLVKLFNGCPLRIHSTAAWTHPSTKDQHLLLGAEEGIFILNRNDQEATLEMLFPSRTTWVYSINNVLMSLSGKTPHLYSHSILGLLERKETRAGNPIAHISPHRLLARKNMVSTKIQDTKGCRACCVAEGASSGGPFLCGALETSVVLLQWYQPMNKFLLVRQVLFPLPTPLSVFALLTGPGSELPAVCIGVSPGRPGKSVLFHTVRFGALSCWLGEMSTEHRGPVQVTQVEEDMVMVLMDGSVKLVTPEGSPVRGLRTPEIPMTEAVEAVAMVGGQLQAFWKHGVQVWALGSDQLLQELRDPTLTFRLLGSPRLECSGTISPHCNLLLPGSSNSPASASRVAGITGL
MAP2K1 (human), sequence (Q02750 whole entry, looked up): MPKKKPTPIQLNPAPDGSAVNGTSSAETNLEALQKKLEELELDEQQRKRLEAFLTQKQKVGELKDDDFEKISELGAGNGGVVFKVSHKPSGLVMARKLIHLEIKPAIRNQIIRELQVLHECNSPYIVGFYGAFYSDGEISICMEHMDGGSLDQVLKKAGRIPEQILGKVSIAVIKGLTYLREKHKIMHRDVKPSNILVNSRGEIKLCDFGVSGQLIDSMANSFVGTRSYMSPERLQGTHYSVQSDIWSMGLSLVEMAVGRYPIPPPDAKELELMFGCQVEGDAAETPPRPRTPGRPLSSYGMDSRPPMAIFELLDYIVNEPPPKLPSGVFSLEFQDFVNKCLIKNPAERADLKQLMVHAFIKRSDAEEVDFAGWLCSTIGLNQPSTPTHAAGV
DDR1 (human), sequence (Q08345 whole entry, looked up): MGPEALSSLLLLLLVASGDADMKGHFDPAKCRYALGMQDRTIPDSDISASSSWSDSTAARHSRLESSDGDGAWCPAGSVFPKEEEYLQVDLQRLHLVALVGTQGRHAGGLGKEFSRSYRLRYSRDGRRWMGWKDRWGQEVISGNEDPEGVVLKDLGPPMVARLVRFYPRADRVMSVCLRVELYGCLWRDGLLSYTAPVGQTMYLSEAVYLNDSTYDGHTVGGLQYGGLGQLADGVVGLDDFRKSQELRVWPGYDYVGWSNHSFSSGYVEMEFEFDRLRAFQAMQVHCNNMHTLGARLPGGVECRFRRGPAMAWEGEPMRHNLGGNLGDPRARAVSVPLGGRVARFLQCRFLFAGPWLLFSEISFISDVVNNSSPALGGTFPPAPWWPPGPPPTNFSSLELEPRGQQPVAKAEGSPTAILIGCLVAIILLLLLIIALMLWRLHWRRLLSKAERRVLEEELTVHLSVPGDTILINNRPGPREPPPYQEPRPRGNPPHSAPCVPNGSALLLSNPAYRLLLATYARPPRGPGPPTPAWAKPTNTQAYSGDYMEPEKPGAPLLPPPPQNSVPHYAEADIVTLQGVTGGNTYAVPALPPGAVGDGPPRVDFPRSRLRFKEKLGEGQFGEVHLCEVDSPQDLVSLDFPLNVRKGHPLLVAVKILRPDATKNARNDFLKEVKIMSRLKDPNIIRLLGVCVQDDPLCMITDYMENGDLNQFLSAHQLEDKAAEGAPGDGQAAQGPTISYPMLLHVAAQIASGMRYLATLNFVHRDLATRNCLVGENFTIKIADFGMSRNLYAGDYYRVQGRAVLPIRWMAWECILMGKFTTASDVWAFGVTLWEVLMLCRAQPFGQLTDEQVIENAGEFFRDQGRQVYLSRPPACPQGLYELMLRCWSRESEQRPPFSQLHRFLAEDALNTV
LRRK2 (human), sequence (Q5S007 whole entry, looked up): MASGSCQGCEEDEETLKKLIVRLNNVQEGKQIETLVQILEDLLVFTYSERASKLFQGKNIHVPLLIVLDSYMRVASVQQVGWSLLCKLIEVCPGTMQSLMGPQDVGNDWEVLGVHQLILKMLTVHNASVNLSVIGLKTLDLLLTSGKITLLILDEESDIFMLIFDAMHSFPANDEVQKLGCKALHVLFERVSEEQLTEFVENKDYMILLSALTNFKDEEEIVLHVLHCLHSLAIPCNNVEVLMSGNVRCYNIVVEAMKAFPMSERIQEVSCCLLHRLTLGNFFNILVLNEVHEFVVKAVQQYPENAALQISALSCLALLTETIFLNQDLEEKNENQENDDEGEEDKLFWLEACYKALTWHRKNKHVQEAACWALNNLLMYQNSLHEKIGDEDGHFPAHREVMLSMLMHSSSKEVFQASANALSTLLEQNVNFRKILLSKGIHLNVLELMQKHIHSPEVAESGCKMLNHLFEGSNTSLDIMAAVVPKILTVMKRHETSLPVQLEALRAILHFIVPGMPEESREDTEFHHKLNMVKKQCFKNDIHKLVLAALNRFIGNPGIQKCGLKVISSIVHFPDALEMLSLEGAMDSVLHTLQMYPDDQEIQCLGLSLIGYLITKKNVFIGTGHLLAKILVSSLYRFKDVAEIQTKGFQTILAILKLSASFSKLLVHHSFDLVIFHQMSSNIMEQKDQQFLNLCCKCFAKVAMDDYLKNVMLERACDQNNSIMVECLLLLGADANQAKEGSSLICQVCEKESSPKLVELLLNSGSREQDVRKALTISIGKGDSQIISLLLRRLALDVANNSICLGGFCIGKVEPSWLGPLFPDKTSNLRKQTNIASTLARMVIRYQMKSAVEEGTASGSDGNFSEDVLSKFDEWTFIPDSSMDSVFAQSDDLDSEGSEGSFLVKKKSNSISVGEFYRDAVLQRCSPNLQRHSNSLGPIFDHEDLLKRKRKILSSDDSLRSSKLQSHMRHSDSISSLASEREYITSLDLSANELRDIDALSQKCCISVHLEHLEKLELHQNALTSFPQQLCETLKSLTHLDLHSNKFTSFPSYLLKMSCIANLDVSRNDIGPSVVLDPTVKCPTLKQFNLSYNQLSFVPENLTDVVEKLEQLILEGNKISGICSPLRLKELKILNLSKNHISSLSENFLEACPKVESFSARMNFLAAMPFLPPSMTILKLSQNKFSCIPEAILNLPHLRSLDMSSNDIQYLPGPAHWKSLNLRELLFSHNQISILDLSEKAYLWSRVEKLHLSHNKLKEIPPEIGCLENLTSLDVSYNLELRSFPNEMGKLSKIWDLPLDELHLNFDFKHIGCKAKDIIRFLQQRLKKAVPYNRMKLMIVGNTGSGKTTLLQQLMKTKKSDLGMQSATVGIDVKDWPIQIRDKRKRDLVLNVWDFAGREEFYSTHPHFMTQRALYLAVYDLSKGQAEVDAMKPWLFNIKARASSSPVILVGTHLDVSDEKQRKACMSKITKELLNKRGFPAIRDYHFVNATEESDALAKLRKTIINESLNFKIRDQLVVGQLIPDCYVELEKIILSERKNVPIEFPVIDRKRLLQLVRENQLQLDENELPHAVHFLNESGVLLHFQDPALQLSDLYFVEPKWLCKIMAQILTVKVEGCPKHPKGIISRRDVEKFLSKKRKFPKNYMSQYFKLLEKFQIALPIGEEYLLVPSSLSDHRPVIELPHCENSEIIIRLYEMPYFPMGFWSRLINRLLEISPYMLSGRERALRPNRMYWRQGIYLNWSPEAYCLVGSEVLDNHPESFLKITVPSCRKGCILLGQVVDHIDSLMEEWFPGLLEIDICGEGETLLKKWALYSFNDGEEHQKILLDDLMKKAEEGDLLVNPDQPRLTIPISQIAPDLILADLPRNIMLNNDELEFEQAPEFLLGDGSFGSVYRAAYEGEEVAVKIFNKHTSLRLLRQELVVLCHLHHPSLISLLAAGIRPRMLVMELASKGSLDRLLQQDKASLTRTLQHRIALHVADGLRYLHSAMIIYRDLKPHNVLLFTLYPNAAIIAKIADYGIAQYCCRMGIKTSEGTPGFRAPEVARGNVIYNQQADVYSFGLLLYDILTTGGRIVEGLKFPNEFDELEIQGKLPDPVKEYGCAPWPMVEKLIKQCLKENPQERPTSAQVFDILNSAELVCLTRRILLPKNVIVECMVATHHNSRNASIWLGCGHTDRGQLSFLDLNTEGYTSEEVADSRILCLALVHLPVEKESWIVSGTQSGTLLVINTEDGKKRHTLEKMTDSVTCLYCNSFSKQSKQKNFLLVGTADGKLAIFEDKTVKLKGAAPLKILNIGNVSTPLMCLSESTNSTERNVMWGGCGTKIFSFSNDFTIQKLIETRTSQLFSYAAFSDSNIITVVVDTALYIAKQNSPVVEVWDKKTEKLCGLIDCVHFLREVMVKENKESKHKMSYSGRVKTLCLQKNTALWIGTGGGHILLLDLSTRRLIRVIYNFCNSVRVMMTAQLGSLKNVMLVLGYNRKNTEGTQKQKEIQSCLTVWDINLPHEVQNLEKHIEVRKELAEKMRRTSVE

- IC50 (DDR1 (human)): > 10 µM
- IC50 (IRAK3 (human)): > 10 µM
- IC50 (LRRK2 (human)): 9.63 µM
- IC50 (MAP2K1 (human)): > 10 µM
- IC50 (MAP3K11 (human)): > 10 µM
- IC50 (MAP4K1 (human)): > 10 µM
- IC50 (MAP4K2 (human)): > 10 µM
- IC50 (MAPK9 (human)): > 10 µM
- IC50 (SYK (human)): > 10 µM
SMILES: CN1CC[C@H](c2c(O)cc(O)c3c(=O)cc(-c4ccccc4Cl)oc23)[C@H](O)C1
